In patent US20100144786A1, “QUINOLINE DERIVATIVES AS CRTH2 RECEPTOR LIGANDS” (priority 2007, published 2010):

Target: T1, CRTH2 receptor (Homo sapiens, UniProt Q9Y5Y4)
T1 construct: expressed in transfected cells; host or cells: Human embryonic kidney (HEK) cells, membranes
T1 sequence (Q9Y5Y4 1-395): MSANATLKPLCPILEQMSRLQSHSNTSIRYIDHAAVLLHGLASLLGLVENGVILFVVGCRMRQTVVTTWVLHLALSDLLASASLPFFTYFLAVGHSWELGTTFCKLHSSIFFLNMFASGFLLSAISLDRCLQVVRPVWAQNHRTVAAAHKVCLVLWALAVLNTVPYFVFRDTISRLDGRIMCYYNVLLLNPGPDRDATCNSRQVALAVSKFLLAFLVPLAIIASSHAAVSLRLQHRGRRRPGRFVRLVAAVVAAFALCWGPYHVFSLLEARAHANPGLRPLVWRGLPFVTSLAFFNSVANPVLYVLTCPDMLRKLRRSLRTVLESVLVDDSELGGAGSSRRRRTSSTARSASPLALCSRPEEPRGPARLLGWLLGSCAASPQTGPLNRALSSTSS
Test: CRTH2 radioligand binding assay ([3H]-PGD2 displacement, SPA)
Settings: HEK cell membranes expressing the CRTH2 receptor, 1 nM [3H]-PGD2
Experimental: Compounds of the invention were tested using the following biological test methods to determine their ability to displace PGD2 from the CRTH2 receptor and for their ability to antagonise the functional effects of PGD2 at the CRTH2 receptor.
The receptor binding assay is performed in a final volume of 200 μl binding buffer [10 mM BES (pH 7.4), 1 mM EDTA, 10 mM manganese chloride, 0.01% BSA] and 1 nM [^3H]-PGD2 (Amersham Biosciences UK Ltd). Ligands are added in assay buffer containing a constant amount of DMSO (1% by volume). Total binding is determined using 1% by volume of DMSO in assay buffer and non-specific binding is determined using 10 μM of unlabeled PGD2 (Sigma). Human embryonic kidney (HEK) cell membranes (3.5 μg) expressing the CRTH2 receptor are incubated with 1.5 mg wheatgerm agglutinin SPA beads and 1 nM [^3H]-PGD2 (Amersham Biosciences UK Ltd) and the mixture incubated for 3 hours at room temperature. Bound [^3H]-PGD2 is detected using a Microbeta TRILUX liquid scintillation counter (Perkin Elmer). Compound IC50 value is determined using a 6-point dose response curve in duplicate with a semi-log compound dilution series. IC50 calculations are performed using Excel and XLfit (Microsoft), and this value is used to determine a Ki value for the test compound using the Cheng-Prusoff equation.

IC50 [nM]	Structure (SMILES)
7.5	CCc1nc2c(F)ccc(OCC(=O)O)c2c(OC(F)F)c1Cc1ccc(Br)cc1 [Example 2, [3-(4-bromobenzyl)-4-difluoromethoxy-2-ethyl-8-fluoroquinolin-5-yloxy]acetic acid]
6.1	CCc1nc2c(F)ccc(OCC(=O)O)c2c(OC(F)F)c1Cc1ccc(C#N)cc1 [Example 1, [3-(4-cyanobenzyl)-4-difluoromethoxy-2-ethyl-8-fluoroquinolin-5-yloxy]acetic acid]
